The source of these data is US9458137B2, “Substituted indol-5-ol derivatives and their therapeutical applications” (NantBioScience, Inc., priority 2012, dated 2016).

Molecules are shown by their SMILES.

The assay has as its system abl kinase. Kind of assay: abl kinase inhibition assay. It counts as biochemical.

For the compound `C/C=C/c1cc(Nc2cc(N3CCN(S(C)(=O)=O)CC3)nc(Oc3ccc4[nH]c(C)cc4c3F)n2)n[nH]1` [Example 55], the “% Inhibition @1 μM Abl” value turned out to be 110%.
For the compound `COCCN1CCN(c2cc(Nc3cc(C4CC4)[nH]n3)nc(Oc3ccc4[nH]c(C)cc4c3F)n2)CC1` [Example 28], the “% Inhibition @1 μM Abl” value is given as 108%.
Regarding `Cc1cc2c(F)c(Oc3nc(Nc4cc(C5CC5)[nH]n4)cc(N4CCN(CCO)CC4)n3)ccc2[nH]1` [Example 12], the “% Inhibition @1 μM Abl” value came to 112%.
`Cc1cc(Nc2cc(N3CCN(CCO)CC3)nc(Oc3cc(F)c4[nH]c(C)cc4c3F)n2)n[nH]1` [Example 105]: the “% Inhibition @1 μM Abl” value is 112%.
For the compound `C/C=C/c1cc(Nc2cc(N3CCC(OC)CC3)nc(Oc3ccc4[nH]c(C)cc4c3F)n2)n[nH]1` [Example 58], the “% Inhibition @1 μM Abl” value stood at 112%.
Take `Cc1cc2c(F)c(Oc3nc(Nc4cc(C5CC5)[nH]n4)cc(N4CCNCC4)n3)ccc2[nH]1` [Example 11, N-(5-cyclopropyl-1H-pyrazol-3-yl)-2-((4-fluoro-2-methyl-1H-indol-5-yl)oxy)-6-(piperazin-1-yl)pyrimidin-4-amine]: the “% Inhibition @1 μM Abl” value is reported as 111%.
Regarding `C/C=C/c1cc(Nc2cc(N3CCC(N(CC)CC)C3)nc(Oc3ccc4[nH]c(C)cc4c3F)n2)n[nH]1` (stereo not shown) [Example 62], the “% Inhibition @1 μM Abl” value is recorded as 111%.
For `C/C=C/c1cc(Nc2cc(N3CCC(OC)CC3)nc(Oc3cc(F)c4[nH]c(C)cc4c3F)n2)n[nH]1` [Example 96], the “% Inhibition @1 μM Abl” value came to 110%.
For the compound `Cc1cc2c(F)c(Oc3nc(Nc4cc(C5CC5)[nH]n4)cc(N4CCC(O)CC4)n3)ccc2[nH]1` [Example 21], the “% Inhibition @1 μM Abl” value worked out at 107%.
The result for `C/C=C/c1cc(Nc2cc(N3CCC(O)CC3)nc(Oc3ccc4[nH]c(C)cc4c3F)n2)n[nH]1` [Example 59] reads 112%; that for `C/C=C/c1cc(Nc2cc(N3CCC(O)CC3)nc(Oc3cc(F)c4[nH]c(C)cc4c3F)n2)n[nH]1` [Example 95], 110%; that for `Cc1cc2c(F)c(Oc3nc(Nc4cc(C5CC5)[nH]n4)cc(N4CCC(F)CC4)n3)ccc2[nH]1` [Example 22], 108%.
Regarding `C/C=C/c1cc(Nc2cc(N3CCN(S(C)(=O)=O)CC3)nc(Oc3cc(F)c4[nH]c(C)cc4c3F)n2)n[nH]1` [Example 98], the “% Inhibition @1 μM Abl” value was 111%.
For the compound `Cc1cc2c(F)c(Oc3nc(Nc4cc(C5CC5)[nH]n4)cc(N4C[C@@H](C)N[C@@H](C)C4)n3)ccc2[nH]1` [Example 20], the “% Inhibition @1 μM Abl” value was 107%.
Turning to `C/C=C/c1cc(Nc2cc(N3CCN(C)CC3)nc(Oc3ccc4[nH]c(C)cc4c3Cl)n2)n[nH]1` [Example 112], the “% Inhibition @1 μM Abl” value was 113%.
Consider `C/C=C/c1cc(Nc2cc(N3CCC(N(CC)CC)C3)nc(Oc3cc(F)c4[nH]c(C)cc4c3F)n2)n[nH]1` (stereo not shown) [Example 94], for which the “% Inhibition @1 μM Abl” value is given as 111%.
Turning to `C/C=C/c1cc(Nc2cc(N3CCS(=O)(=O)CC3)nc(Oc3ccc4[nH]c(C)cc4c3F)n2)n[nH]1` [Example 57], the “% Inhibition @1 μM Abl” value was 111%.
Take `Cc1cc2c(F)c(Oc3nc(Nc4cc(C5CC5)[nH]n4)cc(N4CCOCC4)n3)ccc2[nH]1` [Example 13]: the “% Inhibition @1 μM Abl” value amounted to 112%.
Regarding `Cc1cc2c(F)c(Oc3nc(Nc4cc(C5CC5)[nH]n4)cc(N4CCN(CC(F)(F)F)CC4)n3)ccc2[nH]1` [Example 38], the “% Inhibition @1 μM Abl” value was 108%.
